Data as given in patent US12139480B2, “5-thiazolecarboxamide kinase inhibitor and uses thereof” (iOmx Therapeutics AG, priority 2018, dated 2024).

Legend:
M579-A2-luc tumour cells = assay: sensitisation of tumour cells to in-vitro TNF attack, luciferase-based killing assay; type: cell-based; conditions: TNF 10 ng/mL, compound between about 10 and 100 nM
Procedure: PANC1-luc is an HLA-A2.1+ luciferase-expressing pancreatic adenocarcinoma (PDAC) tumour cell line, and M579-A2-luc is an HLA-A2.1+ luciferase-expressing melanoma tumour cell line.
After lysis, luciferase assay buffer is added and immediately the luciferase intensity was measured by using the TECAN-Spark microplate reader.

SIK1 = molecular target: T1, SIK1 (Homo sapiens, UniProt P57059); assay: radiometric protein kinase assay (33PanQinase), IC50; type: biochemical
T1 construct: purchased ProQinase
T1 sequence (P57059 whole entry): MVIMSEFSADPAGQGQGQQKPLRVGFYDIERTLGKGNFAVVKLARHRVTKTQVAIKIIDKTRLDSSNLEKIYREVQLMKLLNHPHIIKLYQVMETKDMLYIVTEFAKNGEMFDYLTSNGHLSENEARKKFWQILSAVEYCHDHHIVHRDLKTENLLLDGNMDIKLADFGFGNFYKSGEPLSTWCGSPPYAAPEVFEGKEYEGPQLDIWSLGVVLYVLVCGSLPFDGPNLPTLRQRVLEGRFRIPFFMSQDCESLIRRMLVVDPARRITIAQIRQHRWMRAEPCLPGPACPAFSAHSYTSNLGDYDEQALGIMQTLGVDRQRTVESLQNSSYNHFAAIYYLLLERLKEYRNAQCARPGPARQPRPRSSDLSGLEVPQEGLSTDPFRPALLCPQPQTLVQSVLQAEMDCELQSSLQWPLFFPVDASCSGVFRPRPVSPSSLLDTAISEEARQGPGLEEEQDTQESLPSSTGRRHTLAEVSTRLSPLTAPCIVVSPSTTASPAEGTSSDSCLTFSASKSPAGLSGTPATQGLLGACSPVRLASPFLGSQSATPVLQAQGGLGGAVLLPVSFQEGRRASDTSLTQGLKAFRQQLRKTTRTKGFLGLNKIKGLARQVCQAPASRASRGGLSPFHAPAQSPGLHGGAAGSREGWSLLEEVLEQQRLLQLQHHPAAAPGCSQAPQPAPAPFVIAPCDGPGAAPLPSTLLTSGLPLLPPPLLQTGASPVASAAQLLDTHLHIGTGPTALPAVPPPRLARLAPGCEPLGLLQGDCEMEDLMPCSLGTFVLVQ
Procedure: (§1) Incorporation of 33Pi was determined with a microplate scintillation counter (Microbeta, Wallac).

SIK2 = molecular target: T2, SIK2 (Homo sapiens, UniProt Q9H0K1); assay: as above; type: biochemical
T2 construct: purchased ProQinase
T2 sequence (Q9H0K1 whole entry): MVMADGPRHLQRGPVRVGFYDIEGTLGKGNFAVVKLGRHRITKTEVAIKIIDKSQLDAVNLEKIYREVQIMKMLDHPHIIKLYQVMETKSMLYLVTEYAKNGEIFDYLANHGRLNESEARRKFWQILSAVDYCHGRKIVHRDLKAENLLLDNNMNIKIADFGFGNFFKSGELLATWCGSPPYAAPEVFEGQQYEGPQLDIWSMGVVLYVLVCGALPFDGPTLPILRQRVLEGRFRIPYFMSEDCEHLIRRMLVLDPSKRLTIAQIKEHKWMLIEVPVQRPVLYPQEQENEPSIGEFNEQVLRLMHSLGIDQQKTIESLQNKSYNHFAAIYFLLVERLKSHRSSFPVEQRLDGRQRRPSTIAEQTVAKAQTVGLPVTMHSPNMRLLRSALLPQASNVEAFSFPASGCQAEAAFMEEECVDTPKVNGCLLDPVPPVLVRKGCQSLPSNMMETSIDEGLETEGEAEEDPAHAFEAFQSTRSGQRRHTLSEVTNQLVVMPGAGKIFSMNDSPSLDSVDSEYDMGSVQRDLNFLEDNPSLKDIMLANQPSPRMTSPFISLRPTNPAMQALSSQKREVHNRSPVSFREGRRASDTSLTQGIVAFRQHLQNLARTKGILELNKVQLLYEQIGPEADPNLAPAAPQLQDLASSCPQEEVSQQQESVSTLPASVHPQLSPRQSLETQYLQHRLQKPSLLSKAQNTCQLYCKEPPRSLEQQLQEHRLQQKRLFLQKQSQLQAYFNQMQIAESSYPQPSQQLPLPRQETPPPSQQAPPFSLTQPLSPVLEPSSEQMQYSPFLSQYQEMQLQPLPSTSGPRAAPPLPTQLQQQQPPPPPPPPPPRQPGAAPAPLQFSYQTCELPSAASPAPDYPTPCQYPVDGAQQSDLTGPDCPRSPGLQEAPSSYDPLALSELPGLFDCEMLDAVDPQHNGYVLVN
Procedure: as §1

SIK3 = molecular target: T3, SIK3 (Homo sapiens, UniProt Q9Y2K2); assay: as above; type: biochemical
T3 construct: purchased ProQinase
T3 sequence (Q9Y2K2 whole entry): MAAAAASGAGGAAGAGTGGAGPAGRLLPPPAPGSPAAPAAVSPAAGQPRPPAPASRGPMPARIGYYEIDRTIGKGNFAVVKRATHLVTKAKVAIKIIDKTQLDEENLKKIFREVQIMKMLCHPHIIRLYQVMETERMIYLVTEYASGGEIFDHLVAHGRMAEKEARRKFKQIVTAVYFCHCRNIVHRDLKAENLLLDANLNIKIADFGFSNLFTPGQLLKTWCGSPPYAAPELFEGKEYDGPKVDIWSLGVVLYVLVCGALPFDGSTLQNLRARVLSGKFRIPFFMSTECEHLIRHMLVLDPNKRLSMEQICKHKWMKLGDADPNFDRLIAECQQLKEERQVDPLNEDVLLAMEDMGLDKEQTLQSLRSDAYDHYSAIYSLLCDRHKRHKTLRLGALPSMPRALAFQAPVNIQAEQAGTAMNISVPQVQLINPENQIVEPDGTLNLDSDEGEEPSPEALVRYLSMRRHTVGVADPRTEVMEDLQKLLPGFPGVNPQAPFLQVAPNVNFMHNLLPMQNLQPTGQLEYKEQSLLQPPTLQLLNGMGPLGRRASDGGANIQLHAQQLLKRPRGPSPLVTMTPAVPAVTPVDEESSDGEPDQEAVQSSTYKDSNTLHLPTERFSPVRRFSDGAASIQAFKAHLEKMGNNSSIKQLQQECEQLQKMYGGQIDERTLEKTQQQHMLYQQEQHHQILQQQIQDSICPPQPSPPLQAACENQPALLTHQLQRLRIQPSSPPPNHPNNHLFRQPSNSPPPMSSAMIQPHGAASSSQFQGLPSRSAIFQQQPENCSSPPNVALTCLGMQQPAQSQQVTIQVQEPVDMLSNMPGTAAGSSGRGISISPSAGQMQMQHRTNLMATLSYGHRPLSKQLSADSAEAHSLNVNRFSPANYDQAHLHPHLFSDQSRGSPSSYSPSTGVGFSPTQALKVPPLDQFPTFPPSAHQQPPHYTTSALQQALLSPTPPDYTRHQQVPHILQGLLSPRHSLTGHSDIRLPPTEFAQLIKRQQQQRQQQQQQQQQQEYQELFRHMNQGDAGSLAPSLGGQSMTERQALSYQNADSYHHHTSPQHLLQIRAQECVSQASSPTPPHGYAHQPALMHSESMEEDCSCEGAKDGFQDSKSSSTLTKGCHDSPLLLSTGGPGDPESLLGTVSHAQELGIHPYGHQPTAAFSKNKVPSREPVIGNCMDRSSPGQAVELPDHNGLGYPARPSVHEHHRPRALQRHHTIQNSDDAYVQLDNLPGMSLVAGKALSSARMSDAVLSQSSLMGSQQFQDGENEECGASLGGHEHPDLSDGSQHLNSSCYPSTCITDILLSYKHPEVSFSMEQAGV
Procedure: as §1

ABL1 wt = molecular target: T4, ABL1 wt (Homo sapiens, UniProt P00519); assay: as above; type: biochemical
T4 construct: includes the ABL1 wild-type protein (amino acids P118-S525) and mutants forms; purchased ProQinase
T4 sequence (P00519 118-535 limits assumed): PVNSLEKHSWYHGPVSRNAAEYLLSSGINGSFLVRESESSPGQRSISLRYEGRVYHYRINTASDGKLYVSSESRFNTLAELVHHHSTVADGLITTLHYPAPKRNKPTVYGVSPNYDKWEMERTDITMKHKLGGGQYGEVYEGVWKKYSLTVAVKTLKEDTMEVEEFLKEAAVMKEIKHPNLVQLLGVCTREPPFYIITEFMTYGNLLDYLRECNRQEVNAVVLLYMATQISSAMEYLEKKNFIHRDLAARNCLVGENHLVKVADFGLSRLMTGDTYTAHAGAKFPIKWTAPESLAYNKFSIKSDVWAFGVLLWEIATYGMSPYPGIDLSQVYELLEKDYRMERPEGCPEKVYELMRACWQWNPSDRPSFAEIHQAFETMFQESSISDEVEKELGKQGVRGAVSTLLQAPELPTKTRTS
Procedure: as §1

SRC (GST-HIS-tag) = SRC (GST-HIS-tag) (Homo sapiens, UniProt P12931); assay: as above; type: biochemical
Sequence of SRC (GST-HIS-tag) (P12931 whole entry): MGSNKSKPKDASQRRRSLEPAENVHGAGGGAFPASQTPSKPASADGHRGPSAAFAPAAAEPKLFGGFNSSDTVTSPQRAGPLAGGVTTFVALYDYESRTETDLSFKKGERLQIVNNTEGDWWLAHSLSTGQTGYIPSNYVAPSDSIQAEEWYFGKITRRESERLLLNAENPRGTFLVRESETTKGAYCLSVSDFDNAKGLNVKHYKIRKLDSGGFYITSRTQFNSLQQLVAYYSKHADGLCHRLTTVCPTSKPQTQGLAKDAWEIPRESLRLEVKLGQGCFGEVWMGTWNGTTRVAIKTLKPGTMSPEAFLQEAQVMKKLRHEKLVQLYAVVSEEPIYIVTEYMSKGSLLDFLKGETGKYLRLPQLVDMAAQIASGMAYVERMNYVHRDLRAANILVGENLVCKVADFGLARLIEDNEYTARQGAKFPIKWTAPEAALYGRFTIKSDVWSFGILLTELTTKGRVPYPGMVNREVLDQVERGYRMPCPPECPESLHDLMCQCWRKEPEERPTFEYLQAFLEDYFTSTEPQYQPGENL
Procedure: as §1

[1] = humans; prescribing information; cited from earlier work
K562 CML cells = conditions: similar study; dasatinib 10 and 30 mg/kg/day; imatinib 200 mg/kg/day; cited from earlier work
K562 human CML tumours = conditions: dasatinib 8-50 mg/kg PO once a day for 10 days, 5-days-on and 2-days off; imatinib high doses; cited from earlier work

Compound	cytotoxicity in the presence of TNF compared to inhibitor alone (M579-A2-luc tumour cells)	inhibitory activity (SIK1)	inhibitory activity (SIK2)	inhibitory activity (SIK3)	inhibitory activity (ABL1 wt)	inhibitory activity (SRC (GST-HIS-tag))	terminal / elimination half-life [1]	survival / intracranial tumour growth (K562 CML cells)	tumour response (K562 human CML tumours)
COc1c(F)cccc1NC(=O)c1cnc(Nc2cc(N3CCN(CCO)CC3)nc(C)n2)s1 [Compound B4, N-(3-fluoro-2-methoxyphenyl)-2-((6-(4-(2-hydroxyethyl)piperazin-1-yl)-2-methylpyrimidin-4-yl)amino)thiazole-5-carboxamide]	fails to exhibit cytotoxicity	strong inhibitor	strong inhibitor	weak inhibitor	potent inhibitor	potent inhibitor	–	–	–
Cc1cn(-c2cc(NC(=O)c3ccc(C)c(Nc4nccc(-c5cccnc5)n4)c3)cc(C(F)(F)F)c2)cn1 [nilotinib]	–	–	–	–	–	–	approximately 17 hours	–	–
CCOc1cccc(Cl)c1NC(=O)c1cnc(Nc2cc(N3CCN(CCO)CC3)nc(C)n2)s1 [Compound B8, N-(2-chloro-6-ethoxyphenyl)-2-((6-(4-(2-hydroxyethyl)piperazin-1-yl)-2-methylpyrimidin-4-yl)amino)thiazole-5-carboxamide]	fails to exhibit cytotoxicity	low inhibitory activity	low inhibitory activity	low inhibitory activity	potent ABL1 & SRC inhibitor	potent ABL1 & SRC inhibitor	–	–	–
Cc1nc(Nc2ncc(C(=O)Nc3c(Cl)cccc3Br)s2)cc(N2CCN(CCO)CC2)n1 [Compound B1, N-(2-bromo-6-chlorophenyl)-2-((6-(4-(2-hydroxyethyl)piperazin-1-yl)-2-methylpyrimidin-4-yl)amino)thiazole-5-carboxamide]	increased cytotoxicity	–	–	–	pan-SIK and ABL1 & SRC inhibitor	pan-SIK and ABL1 & SRC inhibitor	–	–	–
Cc1ccc(NC(=O)c2ccc(CN3CCN(C)CC3)cc2)cc1Nc1nccc(-c2cccnc2)n1 [imatinib]	–	–	–	–	–	–	–	failed to inhibit intracranial tumour growth	failed to produce a comparative response
